Measured values as given in ChEMBL document CHEMBL4422622, “Identification of Mineralocorticoid Receptor Modulators with Low Impact on Electrolyte Homeostasis but Maintained Organ Protection” (J Med Chem, 2019).
Converted amounts (≈) assume the structure as drawn.

How the values were obtained:
[1] = molecular target: T1, Mineralocorticoid receptor (Homo sapiens, UniProt P08235)
T1 sequence (P08235 whole entry): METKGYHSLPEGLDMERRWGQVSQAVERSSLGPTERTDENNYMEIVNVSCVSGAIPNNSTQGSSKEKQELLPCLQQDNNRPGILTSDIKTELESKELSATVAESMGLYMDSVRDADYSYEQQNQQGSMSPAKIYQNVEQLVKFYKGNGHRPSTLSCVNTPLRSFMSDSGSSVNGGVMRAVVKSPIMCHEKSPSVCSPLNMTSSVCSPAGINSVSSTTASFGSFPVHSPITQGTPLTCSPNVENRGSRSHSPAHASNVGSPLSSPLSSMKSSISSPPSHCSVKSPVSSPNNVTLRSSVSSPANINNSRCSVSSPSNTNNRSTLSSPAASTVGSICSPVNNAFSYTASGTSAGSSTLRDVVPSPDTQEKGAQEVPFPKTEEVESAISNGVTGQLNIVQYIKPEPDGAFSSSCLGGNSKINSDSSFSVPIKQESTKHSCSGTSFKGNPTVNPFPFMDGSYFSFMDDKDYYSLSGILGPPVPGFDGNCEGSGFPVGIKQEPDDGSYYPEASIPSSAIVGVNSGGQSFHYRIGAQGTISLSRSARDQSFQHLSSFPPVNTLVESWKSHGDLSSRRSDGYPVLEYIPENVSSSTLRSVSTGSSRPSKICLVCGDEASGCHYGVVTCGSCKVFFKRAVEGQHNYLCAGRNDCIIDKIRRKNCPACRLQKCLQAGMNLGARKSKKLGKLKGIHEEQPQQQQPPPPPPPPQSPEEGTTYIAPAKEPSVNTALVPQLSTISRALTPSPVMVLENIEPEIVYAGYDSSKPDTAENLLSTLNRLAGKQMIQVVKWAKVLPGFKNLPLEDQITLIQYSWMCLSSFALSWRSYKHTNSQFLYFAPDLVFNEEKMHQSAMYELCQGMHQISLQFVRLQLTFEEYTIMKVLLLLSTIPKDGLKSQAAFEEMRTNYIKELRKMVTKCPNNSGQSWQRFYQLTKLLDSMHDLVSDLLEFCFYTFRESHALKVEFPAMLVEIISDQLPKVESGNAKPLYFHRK
Description: Modulation activity at human mineralocorticoid receptor in human EA.hy926 cells assessed as induction of nuclear translocation of mineralocorticoid receptor in absence of aldosterone by receptor translocation assay

[2] = molecular target: T1, Mineralocorticoid receptor; remark: listed apart in the source
Description: Modulation activity at human mineralocorticoid receptor in human EA.hy926 cells assessed as blocking of nuclear translocation of mineralocorticoid receptor in presence of aldosterone by receptor translocation assay

[3] = Octanol-water partitioning co-efficient, log D of the compound at pH 7.4 by LC/MS/MS analysis; assay type: physicochemical
[4] = molecular target: T1, Mineralocorticoid receptor; remark: listed apart in the source
Description: Antagonist activity at full length human mineralocorticoid receptor expressed in human U2OS cells by luciferase reporter gene assay

[5] = Apparent permeability in human Caco2 cells at 10 uM after 45 to 120 mins by LC/MS/MS analysis; assay type: ADME, cell-based; conditions: Caco-2
[6] = Terminal half life in Han Wistar rat at 1.2 mg/kg, iv by LC-MS/MS analysis; assay type: ADME, organism-based; conditions: in vivo, read-out: beta t1/2 (converted)
[7] = molecular target: T1, Mineralocorticoid receptor; remark: listed apart in the source
Description: Antagonist activity at gal4-fused human mineralocorticoid receptor LBD expressed in UAS-MR-bla HEK293 cells by luciferase reporter gene assay

[8] = Intrinsic clearance in human hepatocytes assessed per million cells at 1 uM measured up to 120 mins in presence of NADPH by LC-MS/MS analysis; assay type: ADME, cell-based, Hepatocyte; conditions: read-out: CLH
[9] = Oral bioavailability in Han Wistar rat at 99 mg/kg by LC-MS/MS analysis; assay type: ADME, organism-based; conditions: in vivo
[10] = Clearance in Han Wistar rat at 1.2 mg/kg, iv by LC-MS/MS analysis; assay type: ADME, organism-based; conditions: in vivo
[11] = Fraction unbound in Han Wistar rat plasma at 1 uM after 4 hrs by LC/MS/MS analysis; assay type: ADME, cell-free
[12] = Intrinsic clearance in Han Wistar rat hepatocytes assessed per million cells at 1 uM after 4 hrs by LC/MS/MS analysis; assay type: ADME, cell-based, Hepatocyte; conditions: read-out: CLH
Glucocorticoid receptor = molecular target: T2, Glucocorticoid receptor (Homo sapiens, UniProt P04150)
T2 sequence (P04150 whole entry): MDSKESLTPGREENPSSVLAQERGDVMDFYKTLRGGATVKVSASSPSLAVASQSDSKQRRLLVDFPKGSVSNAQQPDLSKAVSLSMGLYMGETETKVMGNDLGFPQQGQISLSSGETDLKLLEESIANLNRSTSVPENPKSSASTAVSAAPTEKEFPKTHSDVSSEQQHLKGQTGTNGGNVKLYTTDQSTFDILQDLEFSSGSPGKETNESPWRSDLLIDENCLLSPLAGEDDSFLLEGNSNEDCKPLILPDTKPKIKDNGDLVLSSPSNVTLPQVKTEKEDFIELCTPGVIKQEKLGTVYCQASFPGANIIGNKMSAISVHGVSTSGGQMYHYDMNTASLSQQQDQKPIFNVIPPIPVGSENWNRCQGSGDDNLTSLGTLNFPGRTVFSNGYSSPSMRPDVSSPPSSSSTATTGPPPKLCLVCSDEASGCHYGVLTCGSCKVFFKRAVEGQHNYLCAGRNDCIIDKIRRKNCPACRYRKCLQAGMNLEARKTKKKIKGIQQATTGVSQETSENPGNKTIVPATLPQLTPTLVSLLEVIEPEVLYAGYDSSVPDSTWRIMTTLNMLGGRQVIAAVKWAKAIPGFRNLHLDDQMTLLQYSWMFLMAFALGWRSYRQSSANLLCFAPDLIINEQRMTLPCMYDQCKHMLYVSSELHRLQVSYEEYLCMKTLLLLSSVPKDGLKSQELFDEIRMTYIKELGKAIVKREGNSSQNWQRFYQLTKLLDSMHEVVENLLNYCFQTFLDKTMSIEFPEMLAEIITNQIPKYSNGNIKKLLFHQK
Description: Binding affinity to recombinant human GR LBD by fluormone GS red-fluorescence polarization assay

Rattus norvegicus [13] = assay: Induction of hyperkalemia in Sprague-Dawley rat fed on low salt diet for 72 hrs assessed as increase in Na+/K+ ratio in urine administered via oral gavage after 8 hrs; assay type: organism-based; conditions: in vivo
[14] = molecular target: T3, Mineralocorticoid receptor (Rattus norvegicus, UniProt P22199)
T3 sequence (P22199 whole entry): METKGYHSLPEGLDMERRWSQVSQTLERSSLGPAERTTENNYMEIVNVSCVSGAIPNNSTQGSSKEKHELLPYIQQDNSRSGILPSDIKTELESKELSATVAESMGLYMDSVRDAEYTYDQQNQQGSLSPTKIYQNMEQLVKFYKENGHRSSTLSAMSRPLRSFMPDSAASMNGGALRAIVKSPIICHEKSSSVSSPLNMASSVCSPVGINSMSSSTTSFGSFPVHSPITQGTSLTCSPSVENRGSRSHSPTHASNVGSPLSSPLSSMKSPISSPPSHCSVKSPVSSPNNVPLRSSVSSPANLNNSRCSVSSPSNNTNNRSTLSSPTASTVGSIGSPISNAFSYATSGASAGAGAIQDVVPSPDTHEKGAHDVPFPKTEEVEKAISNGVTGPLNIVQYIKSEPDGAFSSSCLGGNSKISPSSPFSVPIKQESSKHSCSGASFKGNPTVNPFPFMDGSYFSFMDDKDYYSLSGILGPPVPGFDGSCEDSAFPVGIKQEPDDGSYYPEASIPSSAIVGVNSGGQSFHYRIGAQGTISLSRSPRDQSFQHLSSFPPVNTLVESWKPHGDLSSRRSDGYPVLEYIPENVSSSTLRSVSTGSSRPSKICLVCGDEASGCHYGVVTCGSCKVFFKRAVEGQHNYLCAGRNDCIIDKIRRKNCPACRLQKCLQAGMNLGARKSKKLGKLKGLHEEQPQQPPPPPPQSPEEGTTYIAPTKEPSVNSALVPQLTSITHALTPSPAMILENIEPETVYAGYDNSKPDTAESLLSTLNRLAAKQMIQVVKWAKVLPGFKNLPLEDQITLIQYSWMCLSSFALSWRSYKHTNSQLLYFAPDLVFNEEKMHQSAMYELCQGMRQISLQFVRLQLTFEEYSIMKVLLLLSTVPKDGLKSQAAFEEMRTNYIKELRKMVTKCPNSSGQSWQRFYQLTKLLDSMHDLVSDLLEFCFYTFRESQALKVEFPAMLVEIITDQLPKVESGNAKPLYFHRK
Description: Antagonist activity at gal4-fused rat mineralocorticoid receptor LBD in expressed in human U2OS cells by luciferase reporter gene assay

[15] = molecular target: T1, Mineralocorticoid receptor; remark: listed apart in the source
Description: Displacement of [3H]-aldosterone to human mineralocorticoid receptor LBD by radiometric binding assay

[16] = Volume of distribution at steady state in Han Wistar rat at 1.2 mg/kg, iv by LC-MS/MS analysis; assay type: ADME, organism-based; conditions: in vivo, read-out: Vdss
Rattus norvegicus [17] = assay: Induction of hyperkalemia in Sprague-Dawley rat fed on low salt diet for 72 hrs assessed as increase in eplerenone-mediated Na+/K+ ratio in urine administered via oral gavage co-administered with after 8 hrs; assay type: organism-based; conditions: in vivo
[18] = Oral bioavailability in Han Wistar rat at 48 mg/kg by LC-MS/MS analysis; assay type: ADME, organism-based; conditions: in vivo
[19] = Oral bioavailability in Han Wistar rat at […] by LC-MS/MS analysis; assay type: ADME, organism-based; conditions: in vivo
[20] = Oral bioavailability in Sprague-Dawley rat at 3 mg/kg by LC-MS/MS analysis; assay type: ADME, organism-based; conditions: in vivo
[21] = Kinetic solubility of compound at pH 7.4 after 24 hrs by shake-flask assay; assay type: physicochemical; conditions: buffer, read-out: -log(solubility) (converted)
[22] = Intrinsic clearance in human liver microsomes at 1 uM measured up to 30 mins in presence of NADPH by LC-MS/MS analysis; assay type: ADME, Microsome; conditions: read-out: CLH
[23] = Clearance in Sprague-Dawley rat at 1 mg/kg, iv by LC-MS/MS analysis; assay type: ADME, organism-based; conditions: in vivo
Progesterone receptor = molecular target: T4, Progesterone receptor (Homo sapiens, UniProt P06401); assay: Binding affinity to recombinant human progesterone receptor LBD by fluormone PL red-fluorescence polarization assay
T4 sequence (P06401 whole entry): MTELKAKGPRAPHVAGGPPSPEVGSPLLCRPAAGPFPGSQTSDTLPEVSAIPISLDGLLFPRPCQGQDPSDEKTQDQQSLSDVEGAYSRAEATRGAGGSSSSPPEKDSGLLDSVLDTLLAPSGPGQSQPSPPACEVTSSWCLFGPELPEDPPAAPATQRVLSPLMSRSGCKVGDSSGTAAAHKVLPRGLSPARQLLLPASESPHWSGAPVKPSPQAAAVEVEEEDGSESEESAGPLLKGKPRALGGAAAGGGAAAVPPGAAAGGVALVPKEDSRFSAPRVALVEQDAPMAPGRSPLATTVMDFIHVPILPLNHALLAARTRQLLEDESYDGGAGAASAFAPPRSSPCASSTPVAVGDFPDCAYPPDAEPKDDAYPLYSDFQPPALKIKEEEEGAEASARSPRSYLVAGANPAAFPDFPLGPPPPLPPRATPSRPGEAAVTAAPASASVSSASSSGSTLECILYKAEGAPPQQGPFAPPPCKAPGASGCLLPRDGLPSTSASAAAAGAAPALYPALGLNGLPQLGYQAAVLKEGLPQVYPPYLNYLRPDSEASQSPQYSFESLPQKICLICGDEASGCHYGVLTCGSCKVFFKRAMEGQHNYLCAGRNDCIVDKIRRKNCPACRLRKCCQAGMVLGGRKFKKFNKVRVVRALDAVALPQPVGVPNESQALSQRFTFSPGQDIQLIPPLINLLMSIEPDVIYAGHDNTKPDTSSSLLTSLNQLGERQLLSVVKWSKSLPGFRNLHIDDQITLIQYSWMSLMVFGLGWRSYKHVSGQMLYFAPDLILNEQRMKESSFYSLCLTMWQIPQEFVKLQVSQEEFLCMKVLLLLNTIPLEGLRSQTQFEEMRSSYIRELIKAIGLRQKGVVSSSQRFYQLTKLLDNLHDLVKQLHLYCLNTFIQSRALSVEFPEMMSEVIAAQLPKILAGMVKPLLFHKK

[24] = Volume of distribution at steady state in Sprague-Dawley rat at 1 mg/kg, iv by LC-MS/MS analysis; assay type: ADME, organism-based; conditions: in vivo, read-out: Vdss
[25] = Terminal half life in Sprague-Dawley rat at 1 mg/kg, iv by LC-MS/MS analysis; assay type: ADME, organism-based; conditions: in vivo, read-out: beta t1/2 (converted)

Row | SMILES | EC50 [1] [nM] | IC50 [2] [nM] | logD [3] | Papp at 10 µM [5] [×10⁻⁶ cm/s] | half-life [6] [min] | IC50 [7] [nM] | hepatocyte CLint at 1 µM [8] [µL/min/1e6 cells] | clearance [10] [mL/min/kg] | fraction unbound at 4 h, 1 µM [11] | hepatocyte CLint at 1 µM [12] [µL/min/1e6 cells] | Ki (Glucocorticoid receptor) [nM] | Activity (Rattus norvegicus [13]) | IC50 [14] [nM] | Ki [15] [nM] | Vd [16] [L/kg] | further results
1 | NC(=O)C[C@H]1COc2cc(F)cc(F)c2N1C(=O)c1ccc2c(c1)NC(=O)CO2 | 12.6 | > 10000 | 1.1 | 4.2 | 24.6 | 631 | < 1 | 47 | 0.6 | 4.9 | 1260 | Non-Toxic | 100 | 100 | 1.2 | IC50 [4]: 501 nM; bioavailability [9]: 50%
2 | CNC(=O)C[C@H]1COc2ccc(Cl)cc2N1C(=O)c1ccc2c(c1)NC(=O)CO2 | > 10000 | 100 | 1.8 | – | 18 | 1000 | 4.6 | 32 | 0.34 | 20 | 158 | Toxic | 79.4 | 100 | 0.8 | Activity (Rattus norvegicus [17]): Toxic; bioavailability [18]: 45%
3 | CNC(=O)C[C@H]1COc2cc(Cl)ccc2N1C(=O)c1ccc2c(c1)NC(=O)CO2 | – | – | 2 | 21 | 25.8 | – | 3 | 44 | 0.4 | 19 | – | Non-Toxic | 10 | – | 1.5 | bioavailability [19]: 11%
4 | C[C@H]1COc2cc(F)ccc2N1C(=O)c1ccc2c(c1)NC(=O)CO2 | – | – | 2.6 | – | – | – | – | – | 0.091 | 14 | 1260 | Toxic | – | – | – | bioavailability [20]: 76%; solubility kinetic at 24 h [21]: 25.1 µM (≈ 8.6 µg/mL); microsomal CLint at 1 µM [22]: 8 µL/min/mg; clearance [23]: 8 mL/min/kg; Ki (Progesterone receptor): 25100 nM; Vd [24]: 1.7 L/kg; half-life [25]: 144 min
